Reference: patent publication US10702526B2, “Inhibitors of immune checkpoint modulators and related methods” (eFFECTOR Therapeutics, Inc., priority 2015, dated 2020)
“Also recorded” adds a separate entry of the source.

Assays:
[1] = system: PD-1 expression on Jurkat cells; assay: PD-1 expression on PHA/PMA-activated Jurkat T cells (flow cytometry); type: cell-based, human
Procedure: (§1) To examine the effect of MNK-specific inhibitors on PD-1 expression, Jurkat cells (Clone E6.1, ATCC, transformed T cells) were used, which express PD-1 when activated through T cell receptor (TCR) signaling. Briefly, Jurkat cells were grown in 1×RPMI with 1× Pen/Strep, and 10% FBS, then about 3×10^6 Jurkat cells were activated in presence of 1 μg/mL PHA (Sigma) and 50 ng/mL PMA (Sigma). Test Cells were treated simultaneously with various concentrations of MNK-specific inhibitor Compound 107 (0, 0.01, 0.1, 1, 3 and 10 μM). After 48 hours, culture supernatants were harvested and examined via sandwich ELISA for the presence of IL-2 using human IL-2 ELISA DuoSet® (R&D Systems, Minneapolis, Minn.). The level of PD-1 on Jurkat cells was examined by incubating cells with fixable dead cell stain (1:20,000; BD Biosciences, San Jose, Calif.) for 15 minutes at 4° C., washed twice with flow staining buffer (1×PBS, 4% FBS and 1 mM EDTA), incubated with human FcR block, then contacted with allophycocyanin (APC) conjugated anti-PD-1 antibody (Biolegend, San Diego, Calif.) for 30 minutes at 4° C., washed two times with flow buffer, and finally cells were fixed with fixation buffer for 20 minutes at 4° C. After fixation, cells were washed twice with flow buffer and re-suspended in flow buffer and assessed for fluorescence using BD Accuri C6 flow cytometer. Data were analyzed using the C6 cytometer software (BD Biosciences, San Jose, Calif.).

phospho-eIF4E = assay: eIF4E phosphorylation in TMD8 cells (Western blot); type: cell-based, human
Procedure: The ability of MNK-specific inhibitor compounds to regulate the level of HLA class II proteins was evaluated in a diffuse large B-cell lymphoma (DLBCL) cell line, TMD8. Briefly, human DLBCL cell line TMD8 (ATCC), was cultured in RPMI media supplemented with penicillin G (100 U/ml), streptomycin (100 μg/ml), and 10% FBS in a humidified atmosphere of 5% CO2 maintained at 37° C. About 2-4×10^6 TMD8 cells were seeded in 10 cm plates 24 hours prior to drug treatment. The following day, cells were treated with either vehicle control (DMSO) or Compound 107 at the indicated concentration (FIG. 7). Cells were harvested 48 hours post-treatment.
Treated cells were harvested, washed with PBS and lysed in 1×RIPA buffer (Thermo Fisher) for 15 minutes at 4° C. Lysates were clarified by centrifugation for 15 min at 14,000×rpm and supernatants were collected. Protein concentration in the soluble fraction was determined using the BCA protein assay (Thermo Scientific). Proteins were resolved on 4-20% Bis-Tris gradient polyacrylamide gel (Invitrogen) and transferred to nitrocellulose membrane. […] The blots were washed, scanned, and specific proteins detected using the LI-COR Odyssey infrared imager. […]

Jurkat cells = assay: Jurkat T cell viability (fixable dead cell stain); type: cell-based
Procedure: as §1

[2] = system: T effector (CD3+/CD8+) and T regulatory (CD4+/FOXP3+) cells; assay: TE:Treg ratio in tumor infiltrating lymphocytes of CT26 allograft tumors (flow cytometry); type: in vivo, mouse; settings: TILs after 4 days of treatment
Procedure: Mice having established CT26 tumors (100-200 mm^3) were treated with compound 107, anti-PD1 antibody or a combination of compound 107 and anti-PD-1 antibody, as described in Example 4. After 4 days of treatment, the mice were euthanized and tumors were excised. A single cell suspension was generated by dissecting excised tumors into fine pieces with a razor blade, incubating with collagenase, hyaluronidase and DNAse I (Worthington Biochemical, Lakewood N.J.) in RPMI, incubating in 1× trypsin-EDTA, and finally passaging through a 70 micron cell strainer filter (BD Biosciences, San Jose Calif.). […] For samples assessed for CD45/CD3/CD8, cells were washed twice with flow buffer and incubated with fixation buffer for 10 minutes at 4° C. […] Samples assessed for CD45/CD4 were further processed for intracellular staining of FOXP3 using an anti-FOXP3 antibody (FOXP3-PE, BD Biosciences) and the FOXP3/Transcription Factor staining buffer set (eBiosciences, San Diego Calif.) following the manufacturer's protocol. […] Data were collected and analyzed using a BD Accuri C6 flow cytometer (BD Biosciences, San Jose Calif.). The ratio of TE to Treg cells was calculated by determining the percentage of CD3^+/CD8^+ cells present in the CD45^+ lymphocyte population and dividing by the percentage of CD4^+/FOXP3^+ present from the same population.

[3] = Jurkat T cell assay, MNK-specific inhibitors

Cc1cc(Nc2cc(N)ncn2)c(=O)n2c1C(=O)NC21CCCCC1.Cl [Compound 107]
% PD-1 + Inhibition [1, 3]: +++ (+++ = 50-75%)
PD-1 expression ([1]; Jurkat cells with PHA and PMA, 0.01, 0.1, 1, 3 and 10 μM): reduced in a dose dependent manner
reduction in the expression of PD-1 as compared to control ([1]; PHA/PMA activated Jurkat T cells, highest concentration, 48 hours): ≤ 50%
phosphorylation of eIF4E (phospho-eIF4E): potently inhibited
Cell Death (Jurkat cells; [3]): − (− = 0-10%)
cell viability (percentage of dead cells) (Jurkat cells; Jurkat cells with PHA and PMA): no effect on cell viability; also recorded: unaffected
average TE:Treg ratio [2]: 9.7
